Test results as given in patent US12662490B2, “Heterocyclic compounds” (Hoffmann-La Roche Inc., priority 2019, dated 2026).

Each compound was assayed against T1, MAGL (Homo sapiens, UniProt Q99685) (assay: 2-AG assay (MAGL inhibitory activity; hydrolysis of 2-arachidonoylglycerol to arachidonic acid followed by mass spectrometry)). Conditions: 15 min preincubation at RT, 8 μM 2-arachidonoylglycerol, 30 min at RT, RapidFire MS readout.
T1 sequence (Q99685 1-303): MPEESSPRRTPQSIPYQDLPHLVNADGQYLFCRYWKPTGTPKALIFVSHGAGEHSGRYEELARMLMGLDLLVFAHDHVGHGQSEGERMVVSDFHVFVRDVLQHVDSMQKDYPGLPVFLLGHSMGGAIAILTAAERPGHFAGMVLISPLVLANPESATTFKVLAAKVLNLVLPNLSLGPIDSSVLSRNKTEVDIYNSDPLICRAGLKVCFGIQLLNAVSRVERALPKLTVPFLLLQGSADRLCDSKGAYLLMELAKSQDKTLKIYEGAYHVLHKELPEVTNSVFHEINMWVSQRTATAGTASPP
Assay type: biochemical
Experimental: Compounds were profiled for MAGL inhibitory activity by determining the enzymatic activity by following the hydrolysis of the natural substrate 2-arachidonoylglycerol (2-AG) resulting in arachidonic acid, which can be followed by mass spectrometry. This assay is hereinafter abbreviated “2-AG assay”.
The 2-AG assay was carried out in 384 well assay plates (PP, Greiner Cat #784201) in a total volume of 20 μL. Compound dilutions were made in […] (VWR Chemicals 23500.297) in a polypropylene plate in 3-fold dilution steps to give a final concentration range in the assay from 12.5 μM to […]. 0.25 μL compound dilutions (100% DMSO) were added to 9 μL MAGL in assay buffer (50 mM TRIS (GIBCO, 15567-027), 1 mM EDTA (Fluka, 03690-100 mL), 0.010 (v/v) Tween. After shaking, the plate was incubated for 15 min at RT. To start the reaction, 10 μL 2-arachidonoylglycerol in assay buffer was added. The final concentrations in the assay was […] and 8 μM 2-arachidonoylglyerol. After shaking and 30 min incubation at RT, the reaction was quenched by the addition of 40 μL of ACN containing 4 μM of d8-arachidonic acid. The amount of arachidonic acid was traced by an online SPE system (Agilent Rapidfire) coupled to a triple quadrupole mass spectrometer (Agilent 6460). A C18 SPE cartridge (G9205A) was used in an ACN/water liquid setup. The mass spectrometer was operated in negative electrospray mode following the mass transitions 303.1→259.1 for arachidonic acid and 311.1→267.0 for d8-arachidonic acid. The activity of the compounds was calculated based on the ratio of intensities [arachidonic acid/d8-arachidonic acid].

SMILES	IC50
COc1cccc(C(=O)N2CCN3CC(c4ccc(C(F)F)cc4)OCC3C2)c1Cl (mixture of isomers) [Example 48, (2-chloro-3-methoxy-phenyl)-[3-[4-(difluoromethyl)phenyl]-3,4,6,7,9,9a-hexahydro-1H-pyrazino[2,1-c][1,4]oxazin-8-yl]methanone]	0.146 µM
O=C(c1cccc(-c2c[nH]nc2F)c1Cl)N1CCN2CC(c3ccc(C(F)(F)F)nc3)OC[C@@H]2C1 (mixture of isomers) [Example 68, [(9aS)-3-[6-(trifluoromethyl)-3-pyridyl]-3,4,6,7,9,9a-hexahydro-1H-pyrazino[2,1-c][1,4]oxazin-8-yl]-[2-chloro-3-(3-fluoro-1H-pyrazol-4-yl)phenyl]methanone]	0.0158 µM
COc1cccc(C(=O)N2CCN3C[C@@H](c4ccc(F)c(Cl)c4)OC[C@@H]3C2)c1Br (racemic) [Example 2, (2-bromo-3-methoxy-phenyl)-[rac-(3R,9aS)-3-(3-chloro-4-fluoro-phenyl)-3,4,6,7,9,9a-hexahydro-1H-pyrazino[2,1-c][1,4]oxazin-8-yl]methanone]	0.0146 µM
C/C=C/c1cc([C@@H]2CN3CCN(C(=O)c4cccc(OC)c4Cl)C[C@H]3CO2)ccc1F (racemic) [Example 10, (2-chloro-3-methoxy-phenyl)-[(3R,9aS)-3-[4-fluoro-3-[rac-(E)-prop-1-enyl]phenyl]-3,4,6,7,9,9a-hexahydro-1H-pyrazino[2,1-c][1,4]oxazin-8-yl]methanone]	0.179 µM
COc1cccc(C(=O)N2CCN3C[C@@H](c4ccc(Br)cn4)OC[C@H]3C2)c1Cl (racemic) [Example 54, (2-chloro-3-methoxy-phenyl)-[rac-(3S,9aR)-3-(5-bromo-2-pyridyl)-3,4,6,7,9,9a-hexahydro-1H-pyrazino[2,1-c][1,4]oxazin-8-yl]methanone]	0.975 µM
COc1cccc(C(=O)N2CCN3C[C@](O)(c4nc5ccccc5[nH]4)OC[C@H]3C2)c1Cl (single isomer, unassigned) [Example 61]	0.294 µM
COc1cccc(C(=O)N2CCN3C[C@@H](c4cccc(C(F)(F)F)n4)OC[C@@H]3C2)c1Cl (single isomer, unassigned) [Example 63]	1.31 µM
COc1cccc(C(=O)N2CCN3C[C@H](c4cc(Cl)c(Cl)cn4)OC[C@H]3C2)c1Cl (single isomer, unassigned) [Example 66]	0.531 µM
COc1cccc(C(=O)N2CCN3C[C@@H](c4cc(Cl)c(Cl)cn4)OC[C@@H]3C2)c1Cl (single isomer, unassigned) [Example 67]	0.0084 µM
COc1cccc(C(=O)N2CCN3CC(c4ccc(F)c(Cl)c4)SC[C@@H]3C2)c1Cl (single isomer, unassigned) [Example 162]	0.0216 µM
COc1cccc(C(=O)N2CCN3C[C@H](c4ccc(F)c(Cl)c4)OC[C@@]3(C)C2)c1Cl (stereo in doubt) [Example 33, (2-chloro-3-methoxy-phenyl)-[(rel-3S,9aR)-3-(3-chloro-4-fluoro-phenyl)-9a-methyl-1,3,4,6,7,9-hexahydropyrazino[2,1-c][1,4]oxazin-8-yl]methanone]	1.91 µM
O=C(c1cnc2[nH]ncc2c1Cl)N1CCN2C[C@@H](c3ccc(F)c(Cl)c3)OC[C@@H]2C1 [Example 8, [(3R,9aS)-3-(3-chloro-4-fluoro-phenyl)-3,4,6,7,9,9a-hexahydro-1H-pyrazino[2,1-c][1,4]oxazin-8-yl]-(4-chloro-1H-pyrazolo[3,4-b]pyridin-5-yl)methanone]	0.705 µM
COc1cccc(C(=O)N2CCN3C[C@@H](c4ccc(F)c(Cl)c4)OC[C@@H]3C2)c1F [Example 9, [(3R,9aS)-3-(3-chloro-4-fluoro-phenyl)-3,4,6,7,9,9a-hexahydro-1H-pyrazino[2,1-c][1,4]oxazin-8-yl]-(2-fluoro-3-methoxy-phenyl)methanone]	0.0856 µM
COc1cccc(C(=O)N2CCN3C[C@@H](c4ccc(F)c(-c5ccccc5)c4)OC[C@@H]3C2)c1Cl [Example 11, [(3R,9aS)-3-(4-fluoro-3-phenyl-phenyl)-3,4,6,7,9,9a-hexahydro-1H-pyrazino[2,1-c][1,4]oxazin-8-yl]-(2-chloro-3-methoxy-phenyl)methanone]	0.259 µM

More lines, now with the values ahead:

IC50	SMILES
0.134 µM	COc1cccc(C(=O)N2CCN3CC(c4ccc5c(c4)CC5)OCC3C2)c1Cl (mixture of isomers) [Example 47, [3-(3-bicyclo[4.2.0]octa-1,3,5-trienyl)-3,4,6,7,9,9a-hexahydro-1H-pyrazino[2,1-c][1,4]oxazin-8-yl]-(2-chloro-3-methoxy-phenyl)methanone]
0.0446 µM	O=C(c1cccc(-c2c[nH]nc2F)c1Cl)N1CCN2CC(c3ccc(Br)nc3)OC[C@@H]2C1 (mixture of isomers) [Example 70, [2-chloro-3-(3-fluoro-1H-pyrazol-4-yl)phenyl]-[(9aS)-3-(6-bromo-3-pyridyl)-3,4,6,7,9,9a-hexahydro-1H-pyrazino[2,1-c][1,4]oxazin-8-yl]methanone]
0.0533 µM	O=C(c1cccc(-c2c[nH]nc2F)c1Cl)N1CCN2CC(c3ccc(OC(F)F)cc3)OC[C@@H]2C1 (mixture of isomers) [Example 73, (2-chloro-3-(3-fluoro-1H-pyrazol-4-yl)phenyl)((9aS)-3-(4-(difluoromethoxy)phenyl)hexahydropyrazino[2,1-c][1,4]oxazin-8(1H)-yl)methanone]
0.076 µM	COc1cccc(C(=O)N2CCN3C[C@H](c4ccc(Br)cn4)OC[C@H]3C2)c1Cl (racemic) [Example 53, (2-chloro-3-methoxy-phenyl)-[rac-(3R,9aR)-3-(5-bromo-2-pyridyl)-3,4,6,7,9,9a-hexahydro-1H-pyrazino[2,1-c][1,4]oxazin-8-yl]methanone]
2.22 µM	COc1cccc(C(=O)N2CCN3C[C@H](c4cncc(Cl)c4)OC[C@@H]3C2)c1Cl (racemic) [Example 58, (2-chloro-3-methoxy-phenyl)-[rac-(3S,9aS)-3-(5-chloro-3-pyridyl)-3,4,6,7,9,9a-hexahydro-1H-pyrazino[2,1-c][1,4]oxazin-8-yl]methanone]
0.544 µM	COc1cccc(C(=O)N2CCN3C[C@@H](c4cncc(Cl)c4)OC[C@@H]3C2)c1Cl (racemic) [Example 59, (2-chloro-3-methoxy-phenyl)-[rac-(3R,9aS)-3-(5-chloro-3-pyridyl)-3,4,6,7,9,9a-hexahydro-1H-pyrazino[2,1-c][1,4]oxazin-8-yl]methanone]
4.98 µM	COc1cccc(C(=O)N2CCN3C[C@@H](c4sc(C)nc4C)OC[C@@H]3C2)c1Cl (single isomer, unassigned) [Example 51]
1.38 µM	COc1cccc(C(=O)N2CCN3C[C@H](c4sc(C)nc4C)OC[C@H]3C2)c1Cl (single isomer, unassigned) [Example 52]
0.951 µM	COc1cccc(C(=O)N2CCN3C[C@@](O)(c4nc5ccccc5[nH]4)OC[C@@H]3C2)c1Cl (single isomer, unassigned) [Example 60]
0.0031 µM	COc1cccc(C(=O)N2CCN3CC(c4ccc(F)c(Cl)c4)SC[C@@H]3C2)c1Cl (single isomer, unassigned) [Example 161]
0.335 µM	COc1cccc(C(=O)N2CCN3C[C@@H](c4ccc(F)c(Cl)c4)OC[C@]3(C)C2)c1Cl (stereo in doubt) [Example 32, (2-chloro-3-methoxy-phenyl)-[(rel-3R,9aS)-3-(3-chloro-4-fluoro-phenyl)-9a-methyl-1,3,4,6,7,9-hexahydropyrazino[2,1-c][1,4]oxazin-8-yl]methanone]
0.0183 µM	COc1cccc(C(=O)N2CCN3C[C@@H](c4ccc(F)c(Cl)c4)OC[C@@H]3C2)c1Cl [Example 1, [(3R,9aS)-3-(3-chloro-4-fluoro-phenyl)-3,4,6,7,9,9a-hexahydro-1H-pyrazino[2,1-c][1,4]oxazin-8-yl]-(2-chloro-3-methoxy-phenyl)methanone]
0.0282 µM	O=C(c1cnc2sccc2c1Cl)N1CCN2C[C@@H](c3ccc(F)c(Cl)c3)OC[C@@H]2C1 [Example 5, (4-chlorothieno[2,3-b]pyridin-5-yl)-[(3R,9aS)-3-(3-chloro-4-fluoro-phenyl)-3,4,6,7,9,9a-hexahydro-1H-pyrazino[2,1-c][1,4]oxazin-8-yl]methanone]
0.0109 µM	COc1cccc(C(=O)N2CCN3C[C@@H](c4ccc(F)c(Br)c4)OC[C@@H]3C2)c1Cl [Example 6, [(3R,9aS)-3-(3-bromo-4-fluoro-phenyl)-3,4,6,7,9,9a-hexahydro-1H-pyrazino[2,1-c][1,4]oxazin-8-yl]-(2-chloro-3-methoxy-phenyl)methanone]
